# According to patent US10877024B2, “Methods of determining interferon having direct inhibitory effects on tumors and uses thereof” (SUPERLAB FAR EAST LIMITED, priority 2015, dated 2020):
# What was measured:
# [1] = test system: procaspase-3, cleaved caspase-3, procaspase-8, cleaved caspase-8, PARP; assay: Apoptosis-related molecular markers by Western Blot; assay type: cell-based, human; details: A549 and SW620 cells, 24 hr or 48 hr; interferons 10 mcg/ml
# From the text: Thereafter, apoptosis-related molecular markers were monitored by Western Blot. The primary antibodies used were mouse monoclonal anti-beta-tubulin (1:2000, Cat #: CW0098A) and mouse monoclonal anti-GAPDH (1:2000, Cat #: CW0100A) (Kangwei Biotechnology, China); mouse monoclonal anti-PARP (1:1000, Cat #: sc-2007, Santa Cruz Biotechnology, Inc.); rabbit monoclonal anti-procaspase 3 (1:1000, Cat #: 9665), and rabbit polyclonal anti-cleaved caspase 3 (1:1000, Cat #: 9661) (Cell Signaling Technology, USA); goat polyclonal anti-procaspase 8 (1:1000, Cat #: sc-6136, Santa Cruz Biotechnology, Inc); rabbit monoclonal anti-cleaved caspase 8 (1:1000, Cat #: 9496) (Cell Signaling Technology, USA).
# [2] = test system: Human Cervical Cancer Hela Xenografts; assay: rSIFN-co on human cervical cancer Hela xenografts in nude mice; assay type: in vivo; details: 5 mg/kg i.v. days 1 and 13
# Method: Then 1.5 mm^3 fragments were prepared for s.c. implantation into the animals.
# [3] = test system: Human Colon Cancer HT-29 Xenografts; assay: rSIFN-co on human colon cancer HT-29 xenografts in nude mice; assay type: in vivo; details: 5 mg/kg i.v. days 1 and 10
# [4] = test system: human lung cancer SPC-A4 xenografts; details: 5 mg/kg i.v. days 1 and 6
# Method: Under sterile conditions, well-grown tumors were cut into 1.5 mm^3 fragments and one such fragment was injected by trocar needle into the right flank of each study animal. […] Individual tumor size (length and width) was measured twice per week with microcalipers. Tumor volume (V) was calculated using the formula: V=(length×width^2)/2. Individual relative tumor volume (RTV) was calculated using the formula: RTV=Vt/V0, where Vt is the tumor volume on the day of measurement and V0 is the tumor volume on the day of first treatment. Therapeutic effect of the test article or control article was expressed in terms of T/C (%), using the formula: T/C (%)=(mean RTV of the treated group/mean RTV of the control group)×100%; and in terms of % Inhibition, using the formula: % Inhibition=100%−T/C %.
# The 1.5 mm^3 fragments were then used for s.c. implantation into the test animals. The body weight of the animals averaged 22±2 g at dose initiation.
# [5] = test system: human hepatoma SMMC-7721 xenografts; assay: rSIFN-co on human hepatoma SMMC-7721 xenografts in nude mice; details: 5 mg/kg i.v.
# Method: The test article was used without dilution. It was stored at 4° C. until thawed for injection.
# The animals used were 4-6 weeks old male BALB/cA nu/nu mice, weighing about 23±2 g, obtained from the Shanghai Institute of Materia Medica (Shanghai, P.R. China). […] Animals were housed 6 to a cage. They were ear-marked with ear hole punch identification. The room temperature was maintained at 25° C.±+1° C. Lighting was set at 12 hr on and 12 hr off. Food was provided ad libitum. City tap water, filtered with a 5 micrometer (μm) filter, was provided to the animals ad libitum via water bottles.
# The test article was administered in a volume of 0.05 ml-0.15 ml per mouse per treatment, depending on the group to which the animal was assigned. […] Normal saline was injected in a volume of 0.15 ml per mouse, which was used as vehicle control.
# Animals were assigned to treatment groups randomly. Initially, all animals were placed in one large animal cage. For assignment to the study, they were later separately housed, with 6 animals per cage per treatment group. Groups 1 and 2 are Control groups in which the animals were each administered the vehicle every other day after the first treatment. […] Tumor growth was monitored by measuring the length and width of each tumor twice a week during the course of the study. Each animal was also weighed twice a week during the course of the study.
# Before commencement of this study, the xenografts were passaged twice in nude mice. Under sterile conditions, well-grown tumors were cut into 1.5 mm^3 fragments and one such fragment was injected by trocar needle into the right flank of each study animal. […] Individual tumor size (length and width) was measured twice per week with microcalipers. Tumor volume (V) was calculated using the formula: V=(length×width^2)/2. Individual relative tumor volume (RTV) was calculated using the formula: RTV=Vt/V0, where Vt is the tumor volume on the day of measurement and V0 is the tumor volume on the day of first treatment. Therapeutic effect of the test article or control article was expressed in terms of T/C (%), using the formula: T/C (%)=(mean RTV of the treated group/mean RTV of the control group)×100%; and in terms of % Inhibition, using the formula: % Inhibition=100%−T/C %.
SMILES,level of cleaved caspase-3 and cleaved caspase-8 [1],"level of procaspase-3, procaspase-8 and PARP [1]","TV(mm^3, mean ± SD) (D 0) ([2]; day 0) [mm^3]",% Inhibition ([2]; day 28) [%],T/C (%) ([2]; day 28),"TV(mm^3, mean ± SD) (D 28) ([2]; day 28) [mm^3]","TV(mm^3, mean ± SD) (D 0) ([3]; day 0) [mm^3]",% Inhibition ([3]; day 28) [%],T/C (%) ([3]; day 28),"TV(mm^3, mean ± SD) (D 28) ([3]; day 28) [mm^3]","TV(mm^3, mean ± SD) (D 0) ([4]; day 0) [mm^3]",% Inhibition ([4]; day 21) [%],RTV (mean ± SD) ([4]; day 21),T/C (%) ([4]; day 21),"TV(mm^3, mean ± SD) (D 21) ([4]; day 21) [mm^3]","TV(mm^3, mean ± SD) (D 0) ([5]; day 0) [mm^3]",mean body weight ([5]; day 0) [gram],% Inhibition ([5]; day 21) [%],"TV(mm^3, mean ± SD) (D 21) ([5]; day 21) [mm^3]",mean body weight ([5]; day 21) [gram]
"O=c1[nH]cc(F)c(=O)[nH]1 [5FU, reference compound]",enhanced level,significant reduction,–,–,–,–,–,–,–,–,–,–,–,–,–,–,–,–,–,–
"CO[C@@]12[C@H](COC(N)=O)C3=C(C(=O)C(C)=C(N)C3=O)N1C[C@@H]1N[C@@H]12 [MMC, Mitomycin C, reference compound]",–,–,130 ± 28,60.08,39.92,676 ± 358,132 ± 22,62.9,37.10,395 ± 95,166 ± 42,72.87,11.54 ± 4.37,27.13,1831 ± 540,125 ± 35,23.9,47.18,621 ± 247,25.4
